Values joined by “and” are separate entries in the source; they are usually repeats but may differ in a detail not shown here. Equal entries are not always repeated. ± gives the expanded uncertainty stated by the source.
Test: cn = amount concentration of the nth substance listed, in mol/dm3
Conditions: 101 kPa, Liquid, c1 = 2; for speed of sound: Linear variable-path acoustic interferometer; for mass density: Pycnometric method

Compound | speed of sound (298.15 K) [m/s] | mass density (298.15 K) [kg/m3] | speed of sound (303.15 K) [m/s] | mass density (303.15 K) [kg/m3] | speed of sound (308.15 K) | mass density (308.15 K) [kg/m3] | speed of sound (313.15 K) [m/s] | mass density (313.15 K) [kg/m3] | speed of sound (318.15 K) | mass density (318.15 K) [kg/m3] | speed of sound (323.15 K) | mass density (323.15 K) [kg/m3]
O=[N+]([O-])[O-].[K+] [potassium nitrate] + O | 1562 ± 1.7 | 1122.9 ± 0.4 | 1569.4 ± 1.8 | 1120.6 ± 0.4 | 1575.8 ± 1.8 m/s and 1575 ± 1.8 m/s | 1118 ± 0.4 | 1580 ± 1.8 | 1115 ± 0.4 | 1584.6 ± 1.8 m/s and 1584.5 ± 1.8 m/s | 1111.8 ± 0.5 | 1588.9 ± 1.8 m/s and 1588.8 ± 1.8 m/s | 1108.2 ± 0.5
[Cl-].[K+] [potassium chloride] + O | 1595.2 ± 1.8 | 1089.1 ± 0.4 | 1605.9 ± 1.8 | 1087.5 ± 0.4 | 1610.2 ± 1.8 m/s | 1085.6 ± 0.4 | 1616.4 ± 1.8 | 1083.4 ± 0.4 | 1621.4 ± 1.8 m/s | 1080.9 ± 0.4 | 1626.5 ± 1.8 m/s | 1078.3 ± 0.5

— the NIST ThermoML archive (doi:10.1016/j.tca.2008.10.023)
